# Patent publication US20090060944A1, “Enhancer Of The Effect Of Adrenocorticoid,Comprising Gum Arabic” (priority 2004, published 2009)
# Assays:
# Type in all cases: in vivo, Male Wistar strain rats
# [1] = system: GM-induced nephritis rats; assay: BUN, serum creatinine and creatinine clearance in GM-induced nephritis rats; conditions: 8th day; for Effect on BUN level (in words): GM-induced nephritis rats; for BUN / Creatinine clearance / Serum creatinine: mean ± S.E. of 8 to 9 rats
# Method: (§1) Gum Arabic was dissolved in water and filtered. The filtrate was spray-dried at about 120° C. to give the GA used in this experiment. GA was dissolved in tap water to prepare a 7.5% GA solution (7.5 g/100 mL, 7.5% GA). The 7.5% GA solution was used for oral administration in drinking water. Gentamicin sulfate (GM) was purchased from Sigma Chemical Co. and used as its saline solution. Prednisolone (PRD) was purchased from Sigma Chemical Co.
# (§2) Male Wistar strain rats weighing 200-220 g (n=8 to 9 per group) were provided by SLC (Japan SLC, Hamamatsu). They were maintained in an air-conditioned room with lighting from 7 a.m. to 7 p.m. The room temperature (about 23° C.) and humidity (about 60%) were controlled automatically. They were kept for one week before treatment. Laboratory chows (Labo MR Stock, Nihon Nosan Kogyo K.K., Yokohama) and drinking water were freely available.
# (§3) Nephritis was induced in rats by daily intraperitoneal injections of GM (80 mg/kg, i.p.) at 10:00 a.m. for 8 consecutive days. Animals injected with saline (1 mL/kg, i.p.) served as normal control. GA (7.5% GA) via the drinking water was administered for 8 consecutive days.
# (§4) Rats were randomly assigned to the following eight groups of 8 to 9 rats each:
# (§5) Group 1 (Normal): received daily intraperitoneal injections of saline (1 mL/kg, i.p.) for 8 days with tap water as drinking water.
# (§6) Group 2 (7.5% GA): received daily saline (1 mL/kg, i.p.) and 7.5% GA via drinking water for 8 days.
# (§7) Group 3 (GM): received daily GM (80 mg/kg, i.p.) for 8 days with tap water as drinking water.
# (§8) Group 4 (GM+7.5% GA): received daily GM (80 mg/kg, i.p.) and 7.5% GA via the drinking water for 8 days.
# (§9) Group 5 (GM+PRD/water): received daily PRD/water (2 mg/kg, p.o.) at 1 hr before daily GM (80 mg/kg, i.p.) administration for 8 days with tap water as drinking water.
# (§10) Group 6 (GM+PRD/water+7.5% GA): received daily PRD/water (2 mg/kg, p.o.) at 1 hr before daily GM (80 mg/kg, i.p.) administration and 7.5% GA via the drinking water for 8 days.
# (§11) 24 hr urine samples were obtained by keeping each animal in an individual metabolic cage for 24 hr at 10:00 a.m. on the 8th day. Rats were fasted for 1 day before urine collection. The collected urine was then centrifuged at 1,600×g for 10 min, and the supernatant was used for protein determination. Immediately after the urine collection, blood sample was taken from abdominal veins. The blood was centrifuged at 1,600×g for 10 min to give serum for the determination of blood urea nitrogen (BUN), serum creatinine and creatinine clearance.
# (§12) The urinary protein excretion was determined by the method of Kingsbury et al (The Journal of Laboratory and Clinical Medicine, 11, 981-989, 1926) and expressed as mg/day. Briefly, a 3% solution of sulfosalicylic acid was added to a diluted urine sample, and placed at room temperature for 10 minutes. Then concentrations of urinary protein were determined from absorbance at 400 nm, and the urinary protein excretion (mg/day) was calculated from the volume of 24 hr urine. Commercial kits (Wako Pure Chemical Industries, Ltd.) were used to assay BUN, creatinine and creatinine clearance in serum with the following assay kits: Urea nitrogen B and Creatinine.
# (§13) The experimental data were tested for statistical significant differences by means of Bonferroni/Dunn's method (Multiple Range Test).
# (§14) PRD (2 mg/kg, p.o.) was orally administered in a form of suspension (0.2 mL/100 g weight of rat) in tap water (PRD/water) 1 hr before GM (80 mg/kg, i.p.) administration to rats of group 5 (GM+PRD/water) and group 6 (GM+PRD/water+7.5% GA). Group 5 received tap water as drinking water. Group 6 received 7.5% GA as drinking water.
# [2] = system: GM-induced nephritis rats; assay: Urine volume and urinary protein in GM-induced nephritis rats; conditions: 8th day; for Effect on urinary protein (in words) / Effect on urine volume (in words): GM-induced nephritis rats; for Urinary protein / Urine volume: mean ± S.E. of 8 to 9 rats, 7.5% GA via drinking water
# Method: as §1, §2, §3, §4, §5, §6, §7, §8, §9, §10, §11, §12, §13, §14
# [3] = system: GM-induced nephritis rats; assay: Organ wet weight / body weight ratio in GM-induced nephritis rats; conditions: for Adrenal gland weight / Kidney weight / Liver weight / Spleen weight / Thymus weight: 8th day, mean ± S.E. of 8 to 9 rats, GM 80 mg/kg i.p., 7.5% GA via drinking water
# Method: as §1, §2, §3, §4, §5, §6, §7, §8, §9, §10
# On the last day, the organs (adrenal gland, thymus, spleen, kidney and liver) were isolated from the rats, and the ratio of each organ wet weight (mg)/body weight (100 g) was determined.
# as §13, §14
# [4] = Table 1, GM 80 mg/kg i.p. 8 days, 7.5% GA via drinking water, 7.5% GA group got saline, no GM
# [5] = Table 4, GM 80 mg/kg i.p., PRD 2 mg/kg p.o. 1 hr before GM, 7.5% GA via drinking water
# [6] = Table 2, GM 80 mg/kg i.p. 8 days, 7.5% GA group got saline, no GM
# [7] = Table 5, GM 80 mg/kg i.p., PRD 2 mg/kg p.o. 1 hr before GM
compound,measurement,setting,value
Gentamicin sulfate [GM],Effect on BUN level (in words),[1],markedly increased
same,BUN,"[1]; Table 1, GM 80 mg/kg i.p. 8 days, 7.5% GA via drinking water 8 days, 7.5% GA group got saline, no GM",78.0 ± 11.9 mg/dL
same,Creatinine clearance,[1]; [4],0.19 ± 0.10 mL/min
same,Serum creatinine,[1]; [4],2.36 ± 0.41 mg/dL
same,BUN,[1]; [5],78.0 ± 11.9 mg/dL
same,Creatinine clearance,[1]; [5],0.19 ± 0.10 mL/min
same,Serum creatinine,[1]; [5],2.36 ± 0.41 mg/dL
same,Effect on urinary protein (in words),[2],increased
same,Effect on urine volume (in words),[2],increased
same,Urinary protein,[2]; [6],26.7 ± 3.3 mg/24 hr
same,Urine volume,[2]; [6],43.1 ± 4.3 mL/24 hr
same,Urinary protein,[2]; [7],26.7 ± 3.3 mg/24 hr
same,Urine volume,[2]; [7],43.1 ± 4.3 mL/24 hr
same,Effect on kidney weight ratio (in words),"[3]; GM-induced nephritis rats, last day",slightly increased
same,Effect on weight of thymus (in words),"[3]; GM-induced nephritis rats, last day, side-effect of PRD",tendency to decrease
same,Adrenal gland weight,[3]; Table 3,23.5 ± 1.4 mg/100 g of body weight
same,Kidney weight,[3]; Table 3,0.89 ± 0.03 g/100 g of body weight
same,Liver weight,[3]; Table 3,2.95 ± 0.07 g/100 g of body weight
same,Spleen weight,[3]; Table 3,209.4 ± 10.8 mg/100 g of body weight
same,Thymus weight,[3]; Table 3,223.5 ± 15.2 mg/100 g of body weight
same,Adrenal gland weight,"[3]; Table 6, PRD 2 mg/kg p.o.",23.5 ± 1.4 mg/100 g of body weight
same,Kidney weight,"[3]; Table 6, PRD 2 mg/kg p.o.",0.89 ± 0.03 g/100 g of body weight
same,Liver weight,"[3]; Table 6, PRD 2 mg/kg p.o.",2.95 ± 0.07 g/100 g of body weight
same,Spleen weight,"[3]; Table 6, PRD 2 mg/kg p.o.",209.4 ± 10.8 mg/100 g of body weight
same,Thymus weight,"[3]; Table 6, PRD 2 mg/kg p.o.",223.5 ± 15.2 mg/100 g of body weight
"C[C@]12C=CC(=O)C=C1CC[C@@H]1[C@@H]2[C@@H](O)C[C@@]2(C)[C@H]1CC[C@]2(O)C(=O)CO [PRD, Prednisolone]",Effect on BUN level (in words),[1],significant protective effect on increments of BUN level
same,Effect on urinary protein (in words),[2],significantly inhibited the increment of urinary protein
same,Effect on urine volume (in words),[2],did not show any effects on the increment of urine volume
same,Effect on weight of thymus (in words),"[3]; rat, in vivo",further decreased
